According to patent EP0232423A1, “CIRCULATION IMPROVING AGENT” (GRELAN PHARMACEUTICAL CO., LTD., priority 1985, dated 1987):

Assays:
[1] = Acute toxicity (LD50); conditions: mouse, in vivo, mice
[2] = tested on: ddY male mice; assay: Thromboembolic respiratory depression induced by ADP; assay type: in vivo; conditions: 30 mg/kg oral, ADP 40 mg/kg i.v., Compound (I) = erythro form
Description: The degree of formation of platelet thrombi in the pulmonary vessels of mice induced by intravenous administration of ADP can be measured based on the decrease in the respiratory rate. The anti-platelet thrombotic action of test drugs can be evaluated by using this decrease in the respiratory rate as a standard. […] Relative respiratory rate (%) was calculated according to the following formula. [formula] (cf. "Thrombosis Research", Vol. 35, Page 311, 1984)

[3] = tested on: mice; assay: Protective action on death caused by endotoxin shock; assay type: in vivo; conditions: for Number of survival after administration of endotoxin: of 15 (Compound (I)) or 14 (ifenprodil) animals
Source text: Compound (I) and ifenprodil tartrate were orally administered to mice and the protective action on death due to endotoxin shock was examined in accordance with a known method (Folia pharmacol. japon, vol. 86, page 17, 1985). The control group was drug-untreated.

[4] = tested on: platelets of rabbit; assay: Fluidity of platelet membrane (fluorescence polarization); assay type: cell-based; design: Fluorescence polarization: unit not given here; conditions: fluidity increases as value decreases
Source text: The activity of compound (I) (lactate) and ifenprodil tartrate against the fluidity of platelet membrane was examined according to a known method (Biochimica et Biophysica Acta, vol. 798, page 210, 1984) using platelets of rabbit and using n-butyl alcohol as a positive control.

[5] = tested on: α1-adrenoceptor; assay: Antagonism of phenylephrine (α1-agonist) contraction in saphenous vein; assay type: cell-based, Mongrel dogs; conditions: compared by pA2 value
Source text: (§1) In this experiment, phenylephrine and clonidine were used as al-agonist and a2-agonist, respectively, and these agonists were cumulatively applied to obtain a dose-response curve.

[6] = tested on: α2-adrenoceptor; assay: Antagonism of clonidine (α2-agonist) contraction in saphenous vein; assay type: cell-based, Mongrel dogs; conditions: clonidine
Source text: as §1

[7] = tested on: ddY male mice; assay: Ameliorative activity against damage of cerebral hypoxia (reduced pressure); assay type: in vivo; conditions: i.p.; 30 mg/kg compound (I) and ifenprodil tartrate, 16 mg/kg phentolamine
Description: Thirty mg/kg each of compound (I) (lactate) and ifenprodil tartrate and 16 mg/kg of phentolamine, which is an a-adrenoceptor blocker, were intraperitoneally administered to ddY male mice, respectively. […] Time from start of reduction of pressure until stop of respiration in the mice was measured. The control group was drug-untreated.

[8] = tested on: male mice; assay: Isoproterenol-induced tachycardia; assay type: in vivo; conditions: 25 mg/kg oral, 30 minutes before 0.01 mg/kg isoproterenol i.v.; three male mice
Description: 25 mg/kg of compound (I) was orally administered to three male mice. After 30 minutes from administration, 0.01 mg/kg of isoproterenol, which is a β-agonist, was intravenously administered, and the effect of compound (I) on tachycardia induced by isoproterenol was observed. The control group was compound (I) - untreated.

[9] = tested on: male mice; assay: Serum total cholesterol and β-lipoprotein in mice fed high cholesterol food; assay type: in vivo; conditions: 200 mg/kg oral on 6th and 7th day, high cholesterol food 7 days, three male mice
Description: Three male mice were fed high cholesterol food for 7 days and 200 mg/kg of compound (I) was orally administered on the 6th day and the 7th day. After a fast over night from the 7th day, measurements of the total cholesterol in serum (Abell et al, "Standard Method of Clinical Chemistry", vol. 2, page 26, […], published by Academic Press; Kanai et al, "[…]", vol. 7, page 64, 1978, published by Kanehara Shuppan) and the amount of β-lipoprotein (Fried-Hoeflmayer, Klin. Wschr., vol. 41, page 246, 1963; Kanai et al, "Rinsho Kensaho Teiyo", vol. 7, page 79, 1978, published by Kanehara Shuppan) were conducted. The control group was compound (I)-untreated.

## CC(C(O)c1ccc(OCc2ccccc2)cc1)N1CCC(Cc2ccccc2)CC1 (stereo not drawn) [Compound (I), 2-(4-benzylpiperidino)-l-(4-benzyloxyphenyl)propan-l-ol]
[1]; iv, venous injection
  LD50: > 70 mg/kg
[1]; oral
  LD50: > 1200 mg/kg
[2]; 1/3 hr after administration
  Relative respiratory rate (%): 53.1 ±11.7 (n=7) %
[2]; 1 hr after administration
  Relative respiratory rate (%): 51.2 ±5.6 (n=10) %
[2]; 2 hr after administration
  Relative respiratory rate (%): 52.8 ±7.4 (n=10) %
[2]; 3 hr after administration
  Relative respiratory rate (%): 49.0 ±8.4(*) (n=9) %
[2]; 5 hr after administration
  Relative respiratory rate (%): 41.9 ±11.5 (n=8) %
[3]; 70 mg/kg oral, 18 hr
  Number of survival after administration of endotoxin: 12
[3]; 70 mg/kg oral, 20 hr
  Number of survival after administration of endotoxin: 9
[3]; 70 mg/kg oral, 22 hr
  Number of survival after administration of endotoxin: 8
[3]; 70 mg/kg oral, 24 hr
  Number of survival after administration of endotoxin: 5
[3]; 70 mg/kg oral, 48 hr
  Number of survival after administration of endotoxin: 1
[3]; 200 mg/kg oral, 18 hr
  Number of survival after administration of endotoxin: 13
[3]; 200 mg/kg oral, 20 hr
  Number of survival after administration of endotoxin: 13
[3]; 200 mg/kg oral, 22 hr
  Number of survival after administration of endotoxin: 10
[3]; 200 mg/kg oral, 24 hr
  Number of survival after administration of endotoxin: 7
[3]; 200 mg/kg oral, 48 hr
  Number of survival after administration of endotoxin: 5
[3]; oral, mice, compound (I) at 200 mg/kg
  protective action on the death (endotoxin shock): remarkable protective action on the death
[4]; 1 µM
  Fluorescence polarization: 2±4
[4]; 10 µM
  Fluorescence polarization: 0±8
[4]; 30 µM
  Fluorescence polarization: -2±0
[4]; 100 µM
  Fluorescence polarization: -22±7
[5]
  competitive antagonism on the α1-agonist relative to that of ifenprodil: about 1/15
  competitive antagonism on the α1-agonist relative to that of prazosin: about 1/8
[6]; concentration of 10^-5 M
  antagonism on the α2-agonist: non- competitive antagonism
[6]; concentration of 10^-6 M
  antagonism on the α2-agonist: No competitive antagonism is recognized
[7]
  effect on survival time (cerebral hypoxia): markedly prolongs survival time
[8]
  Inhibition % of isoproterenol-induced tachycardia: 23%
[9]; serum
  Reduction % as compared with control group Total cholesterol: 8%
[9]
  Reduction % as compared with control group β-lipoprotein: 18%
